Series [1] concerns ECV304/C6 co-culture model. As to conditions: in vitro ECV304/C6 co-culture model ref 27; cited from earlier work.
The next series has as its target T1, Elastase (Sus scrofa, UniProt P00772).
T1 construct: purchased Sigma-Aldrich
Description: Elastase inhibition assay. The format is biochemical. As to conditions: mean ± S.E., read-out: Inhibitory activities (%) Elastase; for inhibition at 10 µM: sample 10 μM; for inhibition at 100 µM: sample 100 μM.

The next series deals with cholinesterases. As to conditions: several studies ref 20, 21; cited from earlier work.
Series [2] has as its target T2, AChE (Electrophorus electricus, UniProt O42275).
T2 construct: purchased Sigma-Aldrich (St. Louis, MO, USA)
Description: AChE inhibition, modified Ellman colorimetric method. Format: biochemical. To be noted: mean ± S.E. of triplicate experiments.
Description: (§3) AChE and BChE inhibitory activities were assessed by a modified version of the Ellman colorimetric method [34]. Each reaction mixture consisted of sodium phosphate buffer (pH 7.4), test sample solution, and either AChE (electrophorus electricus, 0.8 U/mL) or BChE (equine serum, 0.8 U/mL) solution, which was then mixed and incubated for 15 min at room temperature. Reactions were initiated upon addition of DTNB and substrate (0.75 mM).
All reactions were performed in 96-well plates in triplicate, and recorded using a microplate spectrophotometer (Molecular Devices, Sunnyvale, CA, USA).

Another series addresses T3, Chymotrypsin (Bos taurus, UniProt P00766).
T3 construct: purchased Sigma-Aldrich
Description: Chymotrypsin inhibition assay. Format: biochemical. As to conditions: mean ± S.E., read-out: Inhibitory activities (%) Chymotrypsin; for inhibition at 10 µM: sample 10 μM; for inhibition at 100 µM: sample 100 μM.

Series [3] addresses T4, BACE1 (Homo sapiens, UniProt P56817).
T4 construct: purchased Invitrogen (Pan Vera, Madison, WI, USA)
As to the kind of experiment: BACE1 inhibition assay (Invitrogen kit, Rh-[…]-Quencher substrate). The format is biochemical.
Description: (§4) The BACE1 kit from Invitrogen (Pan Vera, Madison, WI, USA) was used for the measurement of BACE1 activity. α-Secretase (tumor necrosis factor-α converting enzyme, TACE) and its fluorogenic substrate were purchased from R&D Systems (Minneapolis, MN, USA). Elastase, chymotrypsin, trypsin, and their substrates were obtained from Sigma-Aldrich.
(§5) BACE1, TACE, chymotrypsin, trypsin, and elastase assays were carried out according to previously described methods [33]. BACE1, TACE, trypsin, chymotrypsin, and elastase assays were carried out using Rh-[sequence]-Quencher, Mca-PLAQAV-Dpa-RSSSR-NH2, N-benzoyl-l-Arg-pNA, N-benzoyl-L-Tyr-pNA, and N-succinyl-Ala-Ala-Ala-pNA as substrates, respectively.

Series [4] deals with T5, BChE (Equus caballus, UniProt P81908).
T5 construct: BChE (equine serum, 0.8 U/mL); purchased Sigma-Aldrich (St. Louis, MO, USA); host or cells: equine serum
As to the kind of experiment: BChE inhibition, modified Ellman colorimetric method. The format is biochemical, equine. To be noted: mean ± S.E. of triplicate experiments. (Ellman's reagent forms a yellow product with free thiols.)
Description: as §3
Enzymatic hydrolysis, mediated by AChE or BChE, was monitored according to the formation of yellow 5-thio-2-nitrobenzoate anions at 405 nm for 15 min, which were produced by the reaction of DTNB with thiocholine released from ACh or BCh. All reactions were performed in 96-well plates in triplicate, and recorded using a microplate spectrophotometer (Molecular Devices, Sunnyvale, CA, USA).

The test system of a further series is rat brain. To be noted: cited from earlier work.
The test system of a further series is Trypsin. As to the kind of experiment: Trypsin inhibition assay. The format is biochemical. To be noted: mean ± S.E.
Series [5] concerns the target T4, BACE1. Description: Inhibition kinetics on BACE1 (Dixon and Lineweaver–Burk plots). The format is biochemical. As to conditions: for Inhibition mode on BACE1: Dixon and Lineweaver–Burk plots; for Ki: Dixon plot. The procedure:
(§1) The inhibitory constant (Ki) was obtained by interpretation of the Dixon plot, and Vmax and Km were defined by Lineweaver–Burk plots, using the initial velocities obtained over a substrate concentration range. These kinetic parameters were calculated using the Enzyme Kinetic™ module of SigmaPlot™ version 12.3 (Systat Software, Inc., San Jose, CA, USA).

A further series relates to brains of rats. As to conditions: pre-administration 40 mg/kg, oral; no reference given; cited from earlier work.
The target of series [6] is T6, α-secretase (tumor necrosis factor-α converting enzyme, TACE) (Homo sapiens, UniProt P78536).
T6 construct: purchased R&D Systems (Minneapolis, MN, USA)
Description: TACE (α-secretase) inhibition assay. Format: biochemical. As to conditions: mean ± S.E., read-out: Inhibitory activities (%) TACE; for inhibition at 10 µM: sample 10 μM; for inhibition at 100 µM: sample 100 μM.
Description: as §4, §5

For series [7], the target named is T2, AChE. As to the kind of experiment: Inhibition kinetics on AChE (Dixon and Lineweaver–Burk plots). The format is biochemical. To be noted: for Inhibition mode on AChE: Dixon and Lineweaver–Burk plots; for Ki: Dixon plot. The procedure: (§2) AChE and BChE inhibitory activities were assessed by a modified version of the Ellman colorimetric method. Each reaction mixture consisted of sodium phosphate buffer (pH 7.4), test sample solution, and either AChE (electrophorus electricus, 0.8 U/mL) or BChE (equine serum, 0.8 U/mL) solution, which was then mixed and incubated for 15 min at room temperature. Reactions were initiated upon addition of DTNB and substrate (0.75 mM).
as §1

The test system of a further series is APPswe/PS1dE9 Tg mice. To be noted: chronic administration for 16 weeks ref 18; cited from earlier work.
Another series concerns APP/PS1 Tg mice. As to conditions: oral 100 mg/kg for 10 days ref 16; cited from earlier work.
Series [8] addresses T5, BChE. As to the kind of experiment: Inhibition kinetics on BChE (Dixon and Lineweaver–Burk plots). Format: biochemical, equine. The procedure: as §2, §1
The subject of the next series is mice. To be noted: orally 4.5 mg/kg body weight of mice ref 23; cited from earlier work.
Series [9] has as its system AChE. As to conditions: previous study ref 19; read-out: IC50 against AChE; cited from earlier work.

Data on four compounds can be found in paper PMC6100189, “In Silico Docking and In Vitro Approaches towards BACE1 and Cholinesterases Inhibitory Effect of Citrus Flavanones” (Molecules : A Journal of Synthetic Chemistry and Natural …, 2018).

T1 sequence (P00772 27-266): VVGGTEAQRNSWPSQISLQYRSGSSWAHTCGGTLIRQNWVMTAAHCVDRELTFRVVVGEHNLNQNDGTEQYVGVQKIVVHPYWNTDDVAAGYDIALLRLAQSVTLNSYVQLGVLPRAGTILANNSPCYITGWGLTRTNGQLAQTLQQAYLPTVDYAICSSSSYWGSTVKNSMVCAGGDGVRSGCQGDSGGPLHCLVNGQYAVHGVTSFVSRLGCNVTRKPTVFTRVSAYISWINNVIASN
T6 sequence (P78536 215-824): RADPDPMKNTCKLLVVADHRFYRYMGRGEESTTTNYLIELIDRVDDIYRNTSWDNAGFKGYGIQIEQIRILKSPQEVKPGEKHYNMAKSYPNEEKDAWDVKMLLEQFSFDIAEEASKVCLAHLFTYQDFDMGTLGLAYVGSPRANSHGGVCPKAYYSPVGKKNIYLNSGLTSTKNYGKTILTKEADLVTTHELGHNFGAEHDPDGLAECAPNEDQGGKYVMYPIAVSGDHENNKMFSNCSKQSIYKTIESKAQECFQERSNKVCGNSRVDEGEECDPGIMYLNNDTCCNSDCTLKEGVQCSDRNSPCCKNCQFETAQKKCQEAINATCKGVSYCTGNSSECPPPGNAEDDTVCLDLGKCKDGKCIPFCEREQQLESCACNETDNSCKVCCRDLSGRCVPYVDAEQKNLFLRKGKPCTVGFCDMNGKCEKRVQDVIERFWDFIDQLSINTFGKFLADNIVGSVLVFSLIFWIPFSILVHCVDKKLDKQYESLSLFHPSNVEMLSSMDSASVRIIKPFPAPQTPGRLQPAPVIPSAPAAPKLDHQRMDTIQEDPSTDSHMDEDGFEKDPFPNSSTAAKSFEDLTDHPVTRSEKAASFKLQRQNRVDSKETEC
T2 sequence (O42275 24-633): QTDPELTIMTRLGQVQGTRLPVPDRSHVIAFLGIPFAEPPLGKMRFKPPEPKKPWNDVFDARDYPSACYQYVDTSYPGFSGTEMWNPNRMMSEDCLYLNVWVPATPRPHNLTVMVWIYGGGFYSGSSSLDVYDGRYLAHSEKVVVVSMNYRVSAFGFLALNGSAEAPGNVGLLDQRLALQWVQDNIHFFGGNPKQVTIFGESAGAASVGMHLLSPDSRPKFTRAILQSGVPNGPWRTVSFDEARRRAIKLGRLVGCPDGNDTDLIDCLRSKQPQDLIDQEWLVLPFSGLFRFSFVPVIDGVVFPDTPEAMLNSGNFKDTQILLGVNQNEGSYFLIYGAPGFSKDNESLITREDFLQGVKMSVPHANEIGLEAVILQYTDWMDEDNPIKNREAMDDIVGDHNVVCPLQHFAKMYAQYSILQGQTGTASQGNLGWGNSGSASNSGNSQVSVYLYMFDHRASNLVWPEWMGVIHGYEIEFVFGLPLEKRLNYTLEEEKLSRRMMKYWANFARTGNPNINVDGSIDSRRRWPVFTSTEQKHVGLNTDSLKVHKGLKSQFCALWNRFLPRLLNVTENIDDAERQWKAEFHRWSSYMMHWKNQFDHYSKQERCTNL
T5 sequence (P81908 whole entry): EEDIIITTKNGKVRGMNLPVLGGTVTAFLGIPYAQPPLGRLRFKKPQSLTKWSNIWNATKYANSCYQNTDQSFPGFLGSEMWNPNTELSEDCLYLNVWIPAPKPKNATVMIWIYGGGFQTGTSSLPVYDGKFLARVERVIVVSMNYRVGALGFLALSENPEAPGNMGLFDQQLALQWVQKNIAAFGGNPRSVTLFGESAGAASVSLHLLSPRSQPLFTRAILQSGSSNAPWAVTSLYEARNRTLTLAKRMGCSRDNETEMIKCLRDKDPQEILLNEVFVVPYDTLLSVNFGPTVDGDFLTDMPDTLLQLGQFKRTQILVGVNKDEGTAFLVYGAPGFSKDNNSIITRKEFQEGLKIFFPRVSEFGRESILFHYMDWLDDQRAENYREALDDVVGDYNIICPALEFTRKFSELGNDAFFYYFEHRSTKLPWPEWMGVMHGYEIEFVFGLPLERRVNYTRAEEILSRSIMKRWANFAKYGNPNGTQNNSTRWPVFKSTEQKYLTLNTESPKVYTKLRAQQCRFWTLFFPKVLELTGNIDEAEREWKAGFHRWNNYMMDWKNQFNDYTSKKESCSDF
T4 sequence (P56817 46-501): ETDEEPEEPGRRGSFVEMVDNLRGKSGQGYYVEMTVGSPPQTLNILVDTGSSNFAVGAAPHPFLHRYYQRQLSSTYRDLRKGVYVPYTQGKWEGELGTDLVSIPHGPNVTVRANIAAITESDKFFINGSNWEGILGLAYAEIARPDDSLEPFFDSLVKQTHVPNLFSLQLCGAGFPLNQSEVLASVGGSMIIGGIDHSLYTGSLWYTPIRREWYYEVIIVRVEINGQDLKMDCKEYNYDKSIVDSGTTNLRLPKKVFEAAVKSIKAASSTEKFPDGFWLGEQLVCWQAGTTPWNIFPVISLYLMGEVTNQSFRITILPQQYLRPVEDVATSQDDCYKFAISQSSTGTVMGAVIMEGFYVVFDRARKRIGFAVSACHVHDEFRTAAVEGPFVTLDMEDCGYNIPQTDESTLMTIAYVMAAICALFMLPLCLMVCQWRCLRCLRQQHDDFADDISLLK
Description for Chymotrypsin: as §4, §5
Description for Elastase: as §4, §5

The IC50 is the concentration that inhibits the measured activity by half. As usually defined, the Ki is a dissociation constant, usually derived from enzyme kinetics or from competition with a known ligand. Read a high Ki as weaker binding. In the case of `COc1ccc(C2CC(=O)c3c(O)cc(O)cc3O2)cc1O` (stereo not drawn) [Hesperetin, 4′-methoxy-3′,5,7-trihydroxyflavanone], in series [1], the BBB crossing result was “cross the BBB”. Besides, the results for the inhibition at 10 µM (at Elastase; at Chymotrypsin; in [6]) were 4.84 ± 0.46%, 4.91 ± 1.4% and 8.66 ± 0.7%, respectively. Moreover, the inhibition at 100 µM at Elastase was determined as 9.95 ± 1.28%; on Chymotrypsin it was 9.21 ± 0.33%; in series [6] it was 11.3 ± 1.37%. Also, the “Inhibitory activity against cholinesterases” value in the series with cholinesterases is listed as “low inhibitory activity”. The IC50 is 45.7 ± 2.69 µM against AChE [2], 22.1 ± 1.81 µM against BACE1 [3] and over 100 µM against BChE [4]. For the same compound, the “Presence in the rat brain” value in the series on rat brain (after oral administration of hesperidin ref 31) was “detected in the rat brain”. The “Presence in the striatum of rat brains” value in the series with rat brain (intravenous 50 mg/kg ref 29) was “detected in the striatum of rat brains”. Also, the “Inhibitory activities (%) Trypsin” value in the series with Trypsin (sample 10 μM) turned out to be 5.31 ± 0.39%; in the series with Trypsin (sample 100 μM) it was 4.72 ± 0.45%. The “Inhibition mode on BACE1” value at BACE1 [5] is “noncompetitive inhibition”. The Ki on BACE1 [5] turned out to be 42.7 µM; at AChE [7] it was 53.9 µM. In the series on brains of rats, the “Effect on cadmium-induced damage in the brains of rats” value was “significantly attenuated cadmium-induced oxidative stress and mitochondrial dysfunction”. In addition, the “Inhibition mode on AChE” value on AChE [7] is on record as “noncompetitive inhibition”.

Take `COc1ccc([C@@H]2CC(=O)c3c(O)cc(O[C@@H]4O[C@H](CO[C@@H]5O[C@@H](C)[C@H](O)[C@@H](O)[C@H]5O)[C@@H](O)[C@H](O)[C@H]4O)cc3O2)cc1O` [Hesperidin, hesperidin]: the “Effect of chronic administration in APPswe/PS1dE9 Tg mice” value with APPswe/PS1dE9 Tg mice was “attenuated oxidative damage, increased anti-oxidative defense, and alleviated cognitive impairment”. Besides, the inhibition at 10 µM on Elastase came to 6.91 ± 0.83%; on Chymotrypsin, 3.19 ± 0.28%; in series [6], 8.53 ± 1.05%. The inhibition at 100 µM was 6 ± 1.33% at Elastase, 4.11 ± 0.34% on Chymotrypsin and 9.19 ± 1.2% in series [6]. Also, the “Inhibitory activity against cholinesterases” value in the series with cholinesterases is given as “low inhibitory activity”. Besides, the IC50 on AChE [2] was found to be 22.8 ± 2.78 µM; against BACE1 [3] it was 17 ± 1.25 µM; against BChE [4] it was 48.1 ± 0.74 µM. In addition, the “Presence in brain homogenates” value in the series with rat brain (systemic administration of hesperidin to rats ref 30) is recorded as “presence of hesperidin was confirmed by brain homogenates”. Moreover, the “Inhibitory activities (%) Trypsin” value with Trypsin (sample 10 μM) was 2.27 ± 0.30%; with Trypsin (sample 100 μM), 1.41 ± 0.22%. Besides, the “Inhibition mode on BACE1” value at BACE1 [5] is on record as “noncompetitive inhibition”. In addition, the inhibitory constant (Ki) at BACE1 [5] is 39.4 µM; at BChE [8] (Dixon plot), 93.6 µM; at AChE [7] it was 21.4 µM. Further, the “Neuroprotective effect in APP/PS1 Tg mice” value with APP/PS1 Tg mice was “recovered microglial activation, APP expression, Aβ deposition, and behavioral dysfunction”. In addition, on BChE [8] (Dixon and Lineweaver–Burk plots), the “Inhibition mode on BChE” value is “noncompetitive inhibition”. Further, the “Inhibition mode on AChE” value on AChE [7] is “noncompetitive inhibition”.

On to `O=C1CC(c2ccc(O)cc2)Oc2cc(O)cc(O)c21` (stereo not drawn) [Naringenin], for which the BBB crossing entry in series [1] was “cross the BBB”. The inhibition at 10 µM was 9.74 ± 0.41% at Elastase, 8.77 ± 0.74% at Chymotrypsin and 5.15 ± 0.98% in series [6]. For the same compound, the inhibition at 100 µM came to 10.5 ± 1.17% at Elastase, 6.88 ± 0.89% on Chymotrypsin and 6.95 ± 1.52% in series [6]. The results for the IC50 against AChE [2], against BACE1 [3] and at BChE [4] were 42.7 ± 4.3 µM, 30.3 ± 2.06 µM and over 100 µM, respectively. For the same compound, the “Presence in cerebral cortexes of rats” value in the series on rat brain (intravenous naringenin 20 mg/kg ref 28) is listed as “identified”. Also, the “Effect on scopolamine-induced amnesia” value in the series with mice was “significantly mitigated scopolamine-induced amnesia”. Moreover, the “Inhibitory activities (%) Trypsin” value with Trypsin (sample 10 μM) is given as 7.80 ± 1.25%; with Trypsin (sample 100 μM), 5.84 ± 0.75%. Further, on BACE1 [5], the “Inhibition mode on BACE1” value is on record as “noncompetitive inhibition”. For the same compound, the Ki came out at 47.1 µM at BACE1 [5] and 45.4 µM on AChE [7]. The “Inhibition mode on AChE” value at AChE [7] was “noncompetitive inhibition”.

As for `COc1cc(O[C@@H]2O[C@H](CO[C@@H]3O[C@H](CO)[C@@H](O)[C@H](O)[C@H]3O)[C@@H](O)[C@H](O)[C@H]2O)c2c(O)c3c(=O)cc(C)oc3cc2c1` [Rubrofusarin-6-O-β-D-gentiobioside], the IC50 in the series with AChE [9] was 15.9 ± 0.32 µM.
